Data reported in US20260286322A1, “PROTEIN TYROSINE P[…] DOMAIN PEPTIDE DIMER FOR NERVOUS SYSTEM REPAIR” (NervGen Pharma Corp., priority 2023, published 2026).

Key:
[1] = tested on: rat model of thoracic traumatic Spinal Cord Injury (SCI); experiment: Bladder function, bladder score and urinary complications in SCI rats; type: in vivo
Method: (§1) Lyophilized Compound 8 was dissolved in saline and injected s.c. at a volume of 500 μl to animal once daily from day 1-day 49 post spinal cord injury.
The dose concentration was 0.8 mg/ml, corresponding to 400 μg/rat. After reconstitutions, the solution was aliquoted and kept at −20° C. until dosing.
Spinal cord injury (SCI) was introduced to the rats by surgery using the Infinite Horizon (IH) Impactor (200 kDyn force) described by Scheff et al. 2003. The surgery was performed with aseptic procedures in a designated area under deep anesthesia. Rats were anesthetized with isoflurane (4% for induction, 2% for maintenance), and O2 (300 cm^3/min) mixture. Hair was removed from the surgical site with clippers and the skin wase scrubbed with an antiseptic detergent. To maintain body temperature the animals were placed upon a homoeothermic blanket system. The T8 Vertebra of the rat was located externally, and an incision was made exposing the vertebral column from T6-T11. A laminectomy was performed using a surgical microscope to expose the dorsal spinal cord at the thoracic (T8) vertebral level. The vertebral column was stabilized by clamping the nearest rostral and caudal vertebral processes and the injury was produced using the IH impactor device at a 200 kDyn force. After each lesion the IH graphs and impact data were reviewed and recorded, rats presenting an impact force more than 10% higher or lower than expected and/or any abnormality on the force/displacement impact graphs were excluded from the study. Additionally, animals scoring more than 1 points in the Basso, Beattie and Bresnahan (BBB) score scale at 1 days after SCI were excluded for the study as well.
Starting the day after lesion animals were observed twice a day and bladders were manually expressed using gentle abdominal pressure. Any abnormal appearance of the urine (i.e. cloudy urine, bloody urine) was recorded, and the size of the bladder estimated by trained researchers in order to obtain a categorical score (bladder score) (empty bladders=0; extra-small bladders=1; small bladders=2, medium bladders=3, large bladders=4). Urinary complications (bloody urine, foul-smelling urine, urine-stained fur) were reported and treated with SC fluids twice a day, and antibiotic treatment if the issues persisted. Bladder expression continue until spontaneous voiding was observed (empty bladder for 3 consecutive days).
During bladder expressions the size of each bladder was estimated by trained researchers and a semi-quantitative score was obtained. Daily estimates of urine retention were obtained by adding the bladder size scores of AM and PM bladder expressions. FIG. 5 illustrates the weekly average of urine retention in the rats in the testing group that were treated with Compound 8 in saline, compared to the rats in control group that were treated with vehicle control (saline).
Urinary complications including bloody urine, foul-smelling urine, and urine-stained fur were monitored. When a new complication was observed after resolutions of a previous event, it was considered repetitive. Animals would be euthanized if the complications persisted after an additional cycle of antibiotics, when bladders could not be expressed or when general health deterioration was observed.
Urinary complications, such as repetitive bloody urine, urine-stained fur and urinary infections were observed, recorded, and treated, as needed.
In this study, the effects of Compound 8 in improving the recovery of open field locomotor performance and bladder function in the SCI rats were further evaluated in comparison with Compound 4 by assessing the BBB scores and bladder scores according to the methods described in Example 3.
In this assessment, 12-13 rats were included in each of the following groups (1) Control group 1: SCI+saline alone; (2) Control group 2: SCI+Compound 4 in saline; (3) Testing group: SCI+Compound 8. […]

[2] = tested on: animal model of spinal cord injury (SCI rats); experiment: Recovery of occasional and frequent walking, inverse Kaplan-Meier on BBB thresholds; type: in vivo, rat
Method: Adult, female Lewis rats (~160 g on arrival) from Envigo were used as the subjects receiving the treatment in the study. The rats were assigned unique identification numbers (PGI ID and tail marks) and housed in ventilated cages. All rats were examined, handled, and weighed prior to initiation of the study to assure adequate health and suitability. During the course of the study, 12/12 light/dark cycles were maintained. The room temperature was maintained between […] and 23° C. with a relative humidity maintained around 50%. Chow and water were provided adlibitum for the duration of the study. The rats were randomly assigned across treatment groups. Body weights were taken twice a week during the study.
Spinal cord injury (SCI) was introduced to the animals and post-operative care was followed after the injury according to the methods described in Example 3.
as §1
The target dose concentration was 0.8 mg/ml. After reconstitutions, the solution was aliquoted and kept at −20° C. until dosing.
12-13 rats were used in each of the following two groups: • 1) Control group: SCI+Saline • 2) Testing group: SCI+Compound 8 in Saline.
Inverse Kaplan-Meier graphs were generated based on the Basso, Beattie & Bresnaham (BBB) open field locomotor assessment described above in Example 3. […]
Recover occasional walking: Occasional walking is defined as less than or equal to half of the attempted steps are successful, corresponding to a BBB score of 10. The week post-SCI in which an animal achieved a 10 or above was recorded and plotted on the Kaplan Meier graph, as defined above.
Recover frequent walking: Frequent walking is defined as greater than half of the attempted steps are successful and corresponds to a BBB score of 11. The week post-SCI in which an animal achieved an 11 or above was recorded and plotted on the Kaplan Meier graph, as defined above.
Statistical methods: Kaplan Meier curves were analyzed using the log-rank test. Effects of Compound 4 and Compound 8 on the locomotor function and bladder function were assessed for statistical significance by repeated measures ANOVA (RM-ANOVA) with Geisser-Greenhouse correction for non-sphericity of data and Tukey correction for multiple comparisons or by nonparametric Friedman's test with Dunn's multiple comparison correction. The choice of RM ANOVA or Friedman's test for the analysis of each type of data (BBB scores, BBB subscores, and bladder scores) was determined by the normality of data distribution tests performed for each of the functional scores across all treatment cohorts. […]

Substance: TAT-Cys-rodent PTPRS wedge domain homodimer [Compound 8]
- average weekly bladder scores compared with Compound 4 or saline alone ([1]; RM ANOVA, Tukey, p=0.0001 vs saline, p=0.0085 vs Compound 4): significantly lower
- Euthanasia due to Urinary Complications ([1]; during the course of the study): none
- Repetitive Urinary Complications (animals) ([1]; during the course of the study): 1 out of 13
- Repetitive Urinary Complications (percentage) ([1]; during the course of the study): 8%
- Urinary Complications (animals) ([1]; during the course of the study): 4 out of 13
- Urinary Complications (percentage) ([1]; during the course of the study): 31%
- percentage of rats with bladder scores of 2 or better ([1]; during weeks 10 to 13): more than 40%
- estimated size of bladders ([1]; evident from week 8 to 13): decrease in the estimated size of bladders
- percentage of rats with bladder scores of 2 or better ([1]; starting on week 6 post-SCI): About 25%
- frequency of urinary complications compared with vehicle control ([1]; vs rats receiving vehicle control): less frequent
- urine retention (weekly average of estimated bladder size scores) ([1]; vs vehicle control, trend noticeable starting at week 4 after SCI): less urine retention
- time at which recovery of frequent walking was first detected ([2]; post injury): after three weeks post injury
- time at which recovery of occasional walking reached 50% ([2]; post-SCI): less than 6 week
- recovery of frequent walking (BBB score of 11 or above), accumulated percent of group ([2]; week 12 post-SCI): ~50%
- recovery of occasional walking (BBB score of 10 or above), accumulated percent of group ([2]; week 12 post-SCI, 0.8 mg/ml, 500 μl s.c. once daily day 1-49): ~80%
